Assay results as given in patent US8283373B2, “Inhibitors of cytosolic phospholipase A2” (Pfizer Inc., priority 2005, dated 2012).

Experiments:
[1] = test system: experimental autoimmune encephalomyelitis (EAE); assay: Experimental autoimmune encephalomyelitis (EAE) model of multiple sclerosis; format: in vivo, mouse
Description: Six groups of B6 mice were immunized with MOG/CFA and injected with pertussis toxin to induce experimental autoimmune encephalomyelitis (EAE), an animal model of Multiple sclerosis. Three groups of mice were treated with vehicle, 4-{3-[1-benzhydryl-5-chloro-2-(2-{[(2,6-dimethylbenzyl)sulfonyl]amino}ethyl)-1H-indol-3-yl]propyl}benzoic acid (Compound A), or 4-{2-[1-benzhydryl-5-chloro-2-(2-{[(3,4-dichlorobenzyl)sulfonyl]amino}-ethyl)-1H-indol-3-yl]ethoxy}benzoic acid (Compound B) from the day of Immunization (orally, 100 mg/kg, twice/day). Another three groups of mice were treated with vehicle, Compound A or Compound B starting on the day of EAE onset (day 15) (orally, 100 mg/kg, twice/day). […] The results are shown in the Table below, wherein mean clinical score is a mean of clinical evaluation of each animal for that particular day.
Animals are Scored as Follows:
• 0—no clinical signs of EAE (no paralysis) • 1—paralysis of tail • 2—paralysis of tail and partial hind leg paralysis • 3—paralysis of tail and complete hind leg paralysis • 4—paralysis of tail, complete hind leg paralysis and a partial front leg paralysis • 5—moribund animal (all four limbs paralyzed, lack of responsiveness, these mice were immediately euthanized).
In addition, the compounds of Examples 14 and 25 were also found to be efficacious in the mouse experimental autoimmune encephalomyelitis (EAE) model of multiple sclerosis. As shown by the data in the Table below, these compounds led to a delayed onset of disease and reduced severity of disease when administered orally in doses as low as 2.5 mg/kg.

[2] = test system: OVA-induced pulmonary inflammation; assay: Rat antigen induced pulmonary inflammation model; format: in vivo
Description: The efficacy of the compound of Example 10 was evaluated in a Brown Norway rat model in which ovalbumin (OVA)-sensitized animals were challenged via the airways with an aerosol of ovalbumin (OVA) on days 1 and 2. OVA sensitized rats were challenged via aerosol on day 1 and day 2. The compound of Example 10 was administered at 30 mg/kg PO BID 1 hour prior to challenge and 10 hours after challenge over the 2 day challenge period. Dexamethasone was administered at 3 mg/kg IP 1 hour prior to challenge on day 1 and day 2. Animals were sacrificed on day 3 and bronchoalveolar cavities ravaged for analysis of cellular influx.

[3] = test system: Ascaris suum antigen-induced bronchoconstriction and AHR; assay: Sheep model of antigen-induced early and late-phase bronchoconstriction and AHR; format: in vivo
Description: In addition to the allergen induced pulmonary inflammation models in rodents, allergen induced changes in lung function are often evaluated in allergic sheep. […] Studies performed in this animal model present strong evidence that the release of arachidonic acid metabolites plays an important role in the development of late bronchial responses to antigen challenge (See Abraham, W. M., et al, Respiration. 1989; 56:48-56). Thus, the compound of Example 10 was evaluated for effects on allergen induced changes in lung function In a sheep model of asthma.
Allergen-induced reversible airway narrowing and AHR are two hallmark features of allergic asthma that can be examined in vivo in a sheep model of asthma. Studies performed in this animal model present strong evidence that the release of arachidonic acid metabolites plays an important role in the development of late bronchial responses to antigen challenge (See Abraham, W. M., et al., Respiration. 1989; 56:48-56). The release of leukotrienes through the LO pathway during the acute bronchial constriction after inhalation of Ascaris suum antigen represents the key factor for the initiation of the subsequent events, namely the late-phase response and the bronchial hyperreactivity. […] In addition, oral administration of a dual LTD4/TXB2 inhibitor can inhibit both the early and late-phase response, as well as AHR to carbachol and histamine (See Abraham, W. M., et al., J Pharmacol Exp Ther. 1988; 247:1004-1011).
The compound of Example 10 was administered at 3 mg/kg BID (PO) 24 h prior to challenge, 2 h prior to challenge and 8 hr post challenge. The mean % increase in airway resistance for 3 individual sheep over the ensuing 8 h period was determined.
The following day, airway hyperresponsiveness (AHR) was assessed in these same treated sheep by determining the cumulative carbachol concentration that increased specific lung resistance by 400%. […] In an extended dosing regimen, compound of Example 10 was administered at 3 mg/kg PO BID for 4 days before challenge, 2 hours before challenge on the fifth day and 8 hr post challenge.

[4] = 3 mg/kg BID PO 24 h and 2 h prior to and 8 hr post challenge
[5] = extended regimen: 3 mg/kg PO BID 4 days before challenge, 2 hours before and 8 hr post

Q: `Cc1cccc(C)c1CS(=O)(=O)NCCc1c(CCCc2ccc(C(=O)O)cc2)c2cc(Cl)ccc2n1C(c1ccccc1)c1ccccc1` [Compound A, 4-{3-[1-benzhydryl-5-chloro-2-(2-{[(2,6-dimethylbenzyl)sulfonyl]amino}ethyl)-1H-indol-3-yl]propyl}benzoic acid] was tested. Which mean clinical score ([1]; 100 mg/kg orally twice/day from EAE onset (day 15), day 11 after immunization) did it give?
A: 0

Q: What about the mean clinical score ([1]; 100 mg/kg orally twice/day from EAE onset (day 15), day 12 after immunization) of the same molecule?
A: 0

Q: And the mean clinical score ([1]; 100 mg/kg orally twice/day from EAE onset (day 15), day 13 after immunization)?
A: 0

Q: And the mean clinical score ([1]; 100 mg/kg orally twice/day from EAE onset (day 15), day 14 after immunization)?
A: 0

Q: And the mean clinical score ([1]; 100 mg/kg orally twice/day from EAE onset (day 15), day 15 after immunization)?
A: 0.33

Q: What about the mean clinical score ([1]; 100 mg/kg orally twice/day from EAE onset (day 15), day 16 after immunization) of the same molecule?
A: 0.60

Q: And the mean clinical score ([1]; 100 mg/kg orally twice/day from EAE onset (day 15), day 17 after immunization)?
A: 0.80

Q: What about the mean clinical score ([1]; 100 mg/kg orally twice/day from EAE onset (day 15), day 18 after immunization) of the same molecule?
A: 1.03

Q: What about the mean clinical score ([1]; 100 mg/kg orally twice/day from EAE onset (day 15), day 19 after immunization) of the same molecule?
A: 1.13

Q: What about the mean clinical score ([1]; 100 mg/kg orally twice/day from EAE onset (day 15), day 20 after immunization) of the same molecule?
A: 1.50

Q: What about the mean clinical score ([1]; 100 mg/kg orally twice/day from EAE onset (day 15), day 21 after immunization) of the same molecule?
A: 1.57

Q: And the mean clinical score ([1]; 100 mg/kg orally twice/day from EAE onset (day 15), day 22 after immunization)?
A: 1.60

Q: And the mean clinical score ([1]; 100 mg/kg orally twice/day from EAE onset (day 15), day 23 after immunization)?
A: 1.37

Q: What about the mean clinical score ([1]; 100 mg/kg orally twice/day from EAE onset (day 15), day 24 after immunization) of the same molecule?
A: 1.43

Q: And the mean clinical score ([1]; 100 mg/kg orally twice/day from EAE onset (day 15), day 25 after immunization)?
A: 1.23

Q: What about the mean clinical score ([1]; 100 mg/kg orally twice/day from EAE onset (day 15), day 26 after immunization) of the same molecule?
A: 0.87

Q: What about the mean clinical score ([1]; 100 mg/kg orally twice/day from EAE onset (day 15), day 27 after immunization) of the same molecule?
A: 0.87

Q: What about the mean clinical score ([1]; 100 mg/kg orally twice/day from day of immunization (Day 1), day 11 after immunization) of the same molecule?
A: 0

Q: And the mean clinical score ([1]; 100 mg/kg orally twice/day from day of immunization (Day 1), day 12 after immunization)?
A: 0

Q: What about the mean clinical score ([1]; 100 mg/kg orally twice/day from day of immunization (Day 1), day 13 after immunization) of the same molecule?
A: 0

Q: What about the mean clinical score ([1]; 100 mg/kg orally twice/day from day of immunization (Day 1), day 14 after immunization) of the same molecule?
A: 0

Q: And the mean clinical score ([1]; 100 mg/kg orally twice/day from day of immunization (Day 1), day 15 after immunization)?
A: 0

Q: What about the mean clinical score ([1]; 100 mg/kg orally twice/day from day of immunization (Day 1), day 16 after immunization) of the same molecule?
A: 0

Q: And the mean clinical score ([1]; 100 mg/kg orally twice/day from day of immunization (Day 1), day 17 after immunization)?
A: 0

Q: And the mean clinical score ([1]; 100 mg/kg orally twice/day from day of immunization (Day 1), day 18 after immunization)?
A: 0

Q: What about the mean clinical score ([1]; 100 mg/kg orally twice/day from day of immunization (Day 1), day 19 after immunization) of the same molecule?
A: 0

Q: What about the mean clinical score ([1]; 100 mg/kg orally twice/day from day of immunization (Day 1), day 20 after immunization) of the same molecule?
A: 0

Q: And the mean clinical score ([1]; 100 mg/kg orally twice/day from day of immunization (Day 1), day 21 after immunization)?
A: 0.06

Q: What about the mean clinical score ([1]; 100 mg/kg orally twice/day from day of immunization (Day 1), day 22 after immunization) of the same molecule?
A: 0.09

Q: And the mean clinical score ([1]; 100 mg/kg orally twice/day from day of immunization (Day 1), day 23 after immunization)?
A: 0.16

Q: What about the mean clinical score ([1]; 100 mg/kg orally twice/day from day of immunization (Day 1), day 24 after immunization) of the same molecule?
A: 0.19

Q: What about the mean clinical score ([1]; 100 mg/kg orally twice/day from day of immunization (Day 1), day 25 after immunization) of the same molecule?
A: 0.25

Q: And the mean clinical score ([1]; 100 mg/kg orally twice/day from day of immunization (Day 1), day 26 after immunization)?
A: 0.28

Q: What about the mean clinical score ([1]; 100 mg/kg orally twice/day from day of immunization (Day 1), day 27 after immunization) of the same molecule?
A: 0.38

Q: What about the “prevention of EAE / reduction of clinical severity” value ([1]; administered from the time of immunization, or in mice with or close to EAE) of the same molecule?
A: can prevent EAE

Q: Which “influx of lymphocytes or neutrophils” value ([2]; 30 mg/kg PO BID) does the source give for `O=C(O)c1ccc(CCCc2c(CCNS(=O)(=O)Cc3ccccc3C(F)(F)F)n(C(c3ccccc3)c3ccccc3)c3ccc(Cl)cc23)cc1` [Example 10, 4-(3-{5-chloro-1-(diphenylmethyl)-2-[2-({[2-(trifluoromethyl)benzyl]sulfonyl}amino)ethyl]-1H-indol-3-yl}propyl)benzoic acid] here?
A: no significant effect

Q: And the “total numbers of inflammatory cells within the BALF” value ([2]; 30 mg/kg PO BID)?
A: statistically significantly attenuated

Q: And the “Bronchoalveolar lavage fluid (BALF) eosinophil influx” value ([2]; 30 mg/kg PO BID over 2 day challenge, 8 out of 8 independent studies)?
A: statistically significantly inhibited

Q: And the “airway hyperresponsiveness (AHR) to carbachol” value [3, 4]?
A: complete blockade

Q: What about the “late asthmatic response (airway resistance)” value [3, 4] of the same molecule?
A: Complete blockade

Q: What about the “AHR to aerosolized carbachol” value [3, 5] of the same molecule?
A: complete blockade

Q: What about the early asthmatic response [3, 5] of the same molecule?
A: modest but statistically significant inhibition

Q: What about the late-phase response [3, 5] of the same molecule?
A: complete blockade
